Test results reported in PubChem BioAssay AID1328 (NMMLSC, 2008).
Active and inactive are the calls of the source. No rule for the calls is given here.

These molecules were tested against Apoptosis regulator Bcl-2 (Homo sapiens) (UniProt P10415) (assay: Bim-Bcl-2 binding modulators, biochemical, multiplexed, high-throughput, human Bcl-2 (AID 1328)). Conditions: Bead-based flow cytometry, fluorescent Bim peptide-Bcl-2 binding.
Chain of Apoptosis regulator Bcl-2 (Homo sapiens) (P10415 whole entry, looked up): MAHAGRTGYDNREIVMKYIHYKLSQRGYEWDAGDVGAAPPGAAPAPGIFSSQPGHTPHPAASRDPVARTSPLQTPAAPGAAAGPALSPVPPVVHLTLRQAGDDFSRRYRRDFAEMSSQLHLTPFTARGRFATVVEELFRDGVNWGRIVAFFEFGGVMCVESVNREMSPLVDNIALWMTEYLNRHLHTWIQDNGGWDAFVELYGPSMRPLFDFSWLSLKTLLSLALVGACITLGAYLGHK

EC50, inactive:
CCC(=O)N(CC)C1=C(O)c2ccccc2C(=O)C1=O
COc1cc(/C=N/Nc2nn3cnnc3c3ccccc23)ccc1O
Clc1ccc2c(N/N=C/c3ccccc3Br)ccnc2c1
O=[N+]([O-])c1ccc(N/N=C/c2ccc(O)c(O)c2O)c(S(=O)(=O)N2CCOCC2)c1
CN(C)[C@@H]1C(=O)C(C(=O)NCN2CCCC2)=C(O)[C@@]2(O)C(=O)C3=C(O)c4c(O)cccc4[C@@](C)(O)C3CC12 (stereo not given in full)
